The subject of data set [1] is cord blood derived mast cells. Nature of the data set: Biosynthesis of 14,15-LTC4 in IL-4 primed cord blood derived mast cells (EIA). The data set is classed as cell-based, human. Particulars: arachidonic acid (10 μM), 5 min, n=3. How it is done: Mast cells play a key role in the pathophysiology of asthma. Recently, we reported that interleukin-4 (IL-4) induced the expression of 15-LO-1 in human cord blood derived mast cells in vitro and that mast cells express 15-LO-1 in vivo (4). Therefore, it was of interest to investigate if mast cells could produce 14,15-leukotrienes. IL-4 primed mast cells were incubated with arachidonic acid (10 μM) for 5 min. Supernatants were collected and analyzed using an EIA against 14,15-LTC4. Under these conditions, human mast cells released 0.8+/−0.6 pmol/10^6 cells, (n=3), indicating the capacity to synthesise and release immunoreactive 14,15-LTC4 after arachidonic acid stimulation.
Prior to incubation, CBMC cells were primed for four days with IL-4 (10 ng/ml). After mechanical removal and washing in PBS, cells were resuspended in PBS and pre-incubated with or without indomethacin (1 μM) for 2 minutes in 37° C. The CBMC cells were subsequently incubated in 37° C. with arachidonic acid for indicated time periods. Incubations were terminated either by addition of one volume of methanol (LC-MS analysis) or by rapid cool off, 0° C., and subsequently analyzed by EIA.

Data set [2] concerns eosinophils. Nature of the data set: Biosynthesis of 14,15-LTC4 and LTC4 in eosinophils (RP-HPLC). The data set is classed as cell-based, human. The settings on record: arachidonic acid (10 μM), 5 min, 37° C.; one line per donor 1-11. How it is done:
(§1) Human eosinophils contain abundant amounts of both 15-lipoxygenase and 5-lipoxygenase. […] The cells were incubated for five minutes at 37° C. and the amounts of 14,15-LTC4 and LTC4 were analyzed with RP-HPLC. […] Therefore, measurement of these metabolites is considered to reflect the total formation of 15-lipoxygenase derived cysteinyl-containing 14,15-leukotrienes and 5-lipoxygenase derived cysteinyl-containing leukotriens, respectively.
Isolated eosinophils (1-20×10^6/sample) were resuspended in phosphate buffered saline (1 ml/sample) and pre-incubated for 2 minutes in 37° C. (in presence or absence of indomethacin, 1 μM) prior to stimulation with ionophore A23187 (1 μM)/arachidonic acid (1 or 10 μM)/A23187 plus arachidonic acid/PGD2 (1 μM)/LTC4 (1 μM)/IL-5 (10 ng/ml)/14,15-LTC4 (10 μM) or 14,15-LTD4 (10 μM) for indicated time periods at 37° C. The incubations were terminated by addition of one volume of methanol (for analysis by RP-HPLC). For subsequent analysis by enzyme immunoassay (EIA), reactions were terminated by rapid cool off, 0° C., before centrifugation at 1200×g, 5 min. Supernatants were transferred to cryo tubes and stored in −70° C. until analyzed.
In order to get rid of cellular debris and proteins, centrifugation at 1200×g for 5 min. was performed. Supernatants were evaporated under reduced pressure and the residues resolved in methanol and transferred to a test tube. Samples were thereafter evaporated to dryness under a stream of nitrogen, and finally resuspended in 200 μl mobile phase (acetonitril:methanol:H20:acetic acid, 29:19:72:0.8, pH adjusted to 5.6 with NH3 for analysis of leukotrienes and 14,15-leukotrienes, and methanol:water:trifluoroacetic acid 70:30:0.007 for analysis of monohydroxy acids). The extracted samples were subjected to analysis in a reverse phase HPLC system as described. Briefly, samples were applied to a octadecyl reverse phase column (Chromabond ^18C, Macherey-Nagel, Duren, Germany) and elution rate was 1.2 ml/minute.

In data set [3] the test system is confluent bovine endothelium cells. Nature of the data set: Endothelial cell barrier function (TEER), Example 6a. Type of data set: cell-based. How it is done: Bovine aorta endothelial cells (BAEC) and human umbilical vein endothelial cells (HUVEC) were isolated and cultured with calf serum or human serum. BAEC or HUVEC in the first to fifth passages were detached by brief (2 min) trypsin-EDTA treatment (0.25% trypsin/0.01% EDTA) and replated onto 3.0 μm pore size polycarbonate filters (Tissue Culture inserts, 10 mm; NUNC, Roskilde, Denmark) or, for the purpose of visual inspection, 0.2 μm pore size Anopore inorganic membrane (transparent when wet). In order to promote cellular differentiation and enhance attachment of EC, the filters were pretreated with 50 μl Biomatrix 1 (167 μg/ml) and air-dried. EC were seeded at a density of 2×10^5 cells per filter and incubated in culture medium at 37° C. in a humidified atmosphere of 5% CO2 in air. The EC were grown to confluent monolayers, as assessed by daily microscopic observation, in transparent 0.2 μm pore size filters and measurement of the electrical resistance across the monolayer. Under these experimental conditions maximal resistance is obtained at day 7 postseeding, at which day the EC monolayers were then used in the experiments.
Rapid changes in endothelial cell (EC) barrier function in response to various arachidonic acid metabolites were analysed through continuous registration of transendothelial electrical resistance (TEER) with electrodes on each side of EC monolayer^18. For measurement of TEER, the filter insert with ECs was transferred to a resistance measurement chamber (Endohm-12, World Precision Instruments, Sarasota, Fla., USA) modified so as to assure exact positioning of the electrodes in relation to each other and to the filter insert daring repeated measurements. The chamber (low compartment) and the filter insert (upper compartment) were filled with 2 ml and 400 μl culture medium, respectively. All measurements were made at 37° C. with the equipment placed in a cell culture incubator. Direct readings of the electrical resistance were given by an ohmmeter (Evom, World Precision Instruments, Sarasota, Fla., US) connected to the electrodes of the resistance chamber. The electrical resistance of individual EC monolayers was obtained by subtracting the resistance of the corresponding naked filter coated with Biomatrix as measured prior to seeding of the EC. Thus, TEER values represent the resistance of the EC monolayer solely and depend on the development of tight junctions between adjoining endothelial cells.

The subject of data set [4] is eosinophils. Nature of the data set: Metabolism in eosinophils after 5 min of incubation. Particulars: 5 min of incubation, 37° C. How it is done:
as §1

A further data set has as its system neutrophils. Nature of the data set: Oxidative metabolism of neutrophils, lucigenin-enhanced chemiluminescence. The data set is classed as cell-based, human. How it is done:
Neutrophil and eosinophil granulocytes were purified from peripheral whole blood using a Percoll gradient and the magnetic cell separation system (MACS).
Granulocytes were primed for 30 minutes at 37° C. with either IL-5 (10.5 ng/mL) or GM-CSF (10.5 ng/mL) and subsequently stimulated with IL-5 (100 ng/mL), GM-CSF (100 ng/mL), LTB4 (10^−7M) or Eoxin (10^−8-10^−6M). Oxidative metabolism was measured by a lucigenin-enhanced chemiluminescence (CL) assay.

Data set [5] can be described thus: Non-enzymatic metabolism during incubation at 37° C. Particulars: 60 min incubation at 37° C. Type of data set: physicochemical. How it is done: In order to analyze if eosinophils can metabolize 14,15-LTC4 to 14,15-LTD4 and 14,15-LTE4, eosinophils were incubated with synthetic 14,15-LTC4 or 14 (R)-cysteinyl-glycyl-15(S)-hydroxy-5,8,10,12(Z,Z,E,E)-eicosatetraenoic acid (14,15-LTD4) for 60 min at 37° C. The metabolites formed were analyzed with product ion scan at 497.2 m/z for 14,15-LTD4 and 440.2 m/z for 14,15-LTE4. The retention time and mass spectrum of a product formed (Metabolite 2) from 14,15-LTC4 were identical to synthetic 14,15-LTD4 (FIG. 30B), and a product formed (Metabolite 3) after incubation with 14,15-LTD4 had identical retention time and mass spectrum as synthetic 14 (R)-cysteinyl-15(S)-hydroxy-5,8,10,12(Z,Z,E,E)-eicosatetraenoic (14,15-LTE4) (FIG. 30C). […] (data not shown). Basically, the product ion mass spectra of 14,15-leukotrienes and corresponding 5-lipoxygenase derived cysteinyl-leukotrienes are almost identical. However, 14,15-leukotrienes form a fragment at 205 m/z, whereas the corresponding fragment in 5-lipoxygenase derived cysteinyl-leukotrienes is at 189 m/z (FIG. 31). These collision induced dissociation products are probably formed by a cleavage next to the carbon where the cysteinyl group is positioned, which is at carbon 14 for 14,15-leukotrienes and carbon 6 for leukotrienes.

The subject of data set [6] is guinea pig pulmonary parenchymal strip or ileum. Particulars: cited from earlier work.
In data set [7] the test system is human endothelial cell (EC) monolayers. Type of data set: cell-based. The settings on record: no granulocytes present.
Excerpt: To explore the ability of 14,15-LTC4 and its metabolites 14,15-LTD4 and 14,15-LTE4 to induce alterations in vascular permeability, an established in vitro permeability assay based on assessment of changes in electrical resistance across human endothelial cell (EC) monolayers was used. Maximum stimulus-induced change in EC resistance in this model reaches down to approximately −70%.
Human umbilical vein endothelial cells (HUVEC) were isolated and cultured as previously described (24). The cells were seeded onto 3 μm pore size polycarbonate filters (Tissue Culture inserts, 10 mm; NUNC, Roskilde, Denmark) at a density of 2×10^5 cells and grown to confluent monolayers. The capacity of arachdonic acid metabolites to induce changes in barrier function of endothelial cell (EC) monolayers was analyzed through continuous registration of transendothelial electrical resistance (TEER) (24). For measurement of TEER, the filter insert with ECs was transferred to a resistance measurement chamber (Endohm-12, World Precision Instruments, Sarasota, Fla., USA) modified so as to assure exact positioning of the electrodes in relation to each other and to the filter insert during repeated measurements. […] The electrical resistance of individual EC monolayers was obtained by subtracting the resistance of the corresponding naked filter coated with Biomatrix as measured prior to seeding of the EC. […]

Values joined by “and” are separate entries in the source; they are usually repeats but may differ in a detail not shown here. Identical values can stand only once.

In the case of `CCCCC/C=C\C/C=C\C/C=C\C/C=C\CCCC(=O)O` [Arachidonic acid], in data set [1], the “14,15-LTC4 released by mast cells” value was 0.8+/−0.6 pmol/10^6 cells. Also, in the data set with eosinophils [2], the “14,15-LTC4” value was 58 pmol/10^7 and 74 pmol/10^7 and 34 pmol/10^7 and 12 pmol/10^7 and 26 pmol/10^7 and 46 pmol/10^7 and 16 pmol/10^7 and 22 pmol/10^7 and 48 pmol/10^7 and 40 pmol/10^7 and 32 pmol/10^7; the LTC4 was 34 pmol/10^7 and 12 pmol/10^7 and 20 pmol/10^7 and 0 pmol/10^7 (4×) and 6 pmol/10^7 and 10 pmol/10^7 and 38 pmol/10^7 and 22 pmol/10^7.
Consider `CCCCC[C@H](O)[C@@H](/C=C/C=C/C=C\C/C=C\CCCC(=O)O)SC[C@H](NC(=O)CC[C@H](N)C(=O)O)C(=O)NCC(=O)O` [EoxC4, 14 (R)-glutathionyl-15 (S)-hydroxy-5,8,10,12 (Z,Z,E,E)-eicosatetraenoic acid], for which the “plasma leakage / change in TEER” value in data set [3] (10^−7 and 10^−8 M) is reported as “induce significant plasma leakage”. In addition, the “potency relative to the most potent 5-lipoxygenase derived leukotrienes” value in data set [3] (FIG. 22) is given as “about five to ten times less potent”. Besides, in the data set with eosinophils [4], the metabolism in eosinophils entry is given as “almost no metabolism”. Also, in the data set with neutrophils (GM-CSF (10.5 ng/mL) primed, Eoxin 10^−8-10^−6M), the “radical production by GM-CSF primed neutrophils” value is on record as “induced the radical production by GM-CSF primed neutrophils in a dose-dependent manner”. For the same compound, the responders in the data set with neutrophils (GM-CSF primed neutrophils) was 7-8 subjects of 13. In addition, in data set [5], the non-enzymatic metabolism entry was “no non-enzymatic metabolism”. In addition, in data set [6] (Drazen et al. 1981), the bronchoconstriction entry is recorded as “did not induce bronchoconstriction”. For the same compound, the contractile effects result in data set [6] (guinea pig pulmonary parenchymal strip or ileum) is given as “appear not to have contractile effects”.
For the compound `CCCCC/C=C\C[C@@H](O)/C=C/C=C/C=C\[C@@H](O)CCCC(=O)O` [LTB4, leukotriene B4], in data set [7], the “effect on EC barrier function” value is recorded as “no effect”. In addition, the “oxygen free radical production by non-primed neutrophils” value in the data set on neutrophils (non-primed blood neutrophils, GM-CSF 100 ng/mL, LTB4 10^−7M, Eoxin 10^−8-10^−6M) was “induced the oxygen free radical production”.

The values are drawn from patent publication US20090247634A1, “Methods for identifying modulators of eoxin formation” (priority 2006, published 2009).
